The nature of data set [1]: Spectroscopic properties: quantum efficiency (QE-1100). Format: physicochemical. The settings on record: fluorescence. The source says: Quantum Efficiency (QE): QE-1100 (Otsuka Electronics Co., Ltd.)
Data set [2] relates to human and rat CYP3A. The data set can be described thus: Molecular species selectivity evaluation, overall conclusion. Format: in vitro ADME. The conditions noted are these: conclusion from Tables 2 and 3. The method, then: (§1) A 100 mM phosphate buffer solution (pH 7.4) containing 3 μM of the compound (2) synthesized according to Example 2, 1 mM of NADPH (Wako Pure Chemical Industries, Ltd.) and 0.1% of DMSO was prepared. In each of the wells of a 96-well plate, 2 μL of each microsome from recombinant insect cell expressing different type of molecular species of CYP (CYP 2 pmol, BD Supersomes™, Nippon BD) was placed, followed by addition of 198 μL of the above-described phosphate buffer solution to start the reaction, which was incubated at 37° C. for 20 minutes. The reaction was stopped by adding 100 μL of acetonitrile (Nacalai Tesque, Inc.), and the fluorescence intensity of the obtained reaction solution was measured at the fluorescence wavelength of 520 nm with an excitation wavelength of 482 nm. A calibration curve was prepared by using the 0 μM, 0.01 μM, 0.05 μM, 0.1 μM, 0.50 μM and 1 μM solutions (100 mM phosphate buffer/acetonitrile=2/1) of the compound (1).

Data set [3] deals with T1, rat CYP2D1 (Rattus norvegicus, UniProt P10633).
T1 construct: purchased Nippon BD (BD Supersomes); host or cells: recombinant insect cells (microsomes)
T1 sequence (P10633 1-504): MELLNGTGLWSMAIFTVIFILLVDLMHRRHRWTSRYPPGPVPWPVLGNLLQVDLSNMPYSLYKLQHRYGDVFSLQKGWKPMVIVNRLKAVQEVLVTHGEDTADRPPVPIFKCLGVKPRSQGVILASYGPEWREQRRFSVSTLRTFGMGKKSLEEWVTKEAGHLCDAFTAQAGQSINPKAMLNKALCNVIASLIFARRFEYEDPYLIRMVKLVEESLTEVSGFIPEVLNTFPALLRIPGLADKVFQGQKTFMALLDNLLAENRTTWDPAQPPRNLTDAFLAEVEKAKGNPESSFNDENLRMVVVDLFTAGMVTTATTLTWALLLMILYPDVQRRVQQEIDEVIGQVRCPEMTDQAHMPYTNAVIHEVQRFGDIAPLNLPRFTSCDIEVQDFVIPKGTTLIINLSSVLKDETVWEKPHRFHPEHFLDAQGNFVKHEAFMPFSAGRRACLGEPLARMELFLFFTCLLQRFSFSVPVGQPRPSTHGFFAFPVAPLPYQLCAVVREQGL
The experiment in a line: Metabolism test with recombinant CYP microsomes (molecular species selectivity). The settings on record: rat CYP2D1 Supersomes, CYP 2 pmol; 3 μM compound (2); 1 mM NADPH; pH 7.4; 37° C., 20 minutes; mean ± SD. Format: in vitro ADME. The method, then:
as §1

Data set [4] has as its target T2, human CYP2E1 (Homo sapiens, UniProt P05181).
T2 construct: purchased Nippon BD (BD Supersomes); host or cells: recombinant insect cells (microsomes)
The data set is described as above. Format: in vitro ADME. The conditions noted are these: human CYP2E1 Supersomes, CYP 2 pmol; 3 μM compound (2); 1 mM NADPH; pH 7.4; 37° C., 20 minutes; mean ± SD. The method, then:
as §1

The target in data set [5] is T3, rat CYP3A2 (Rattus norvegicus, UniProt P05183).
T3 construct: purchased Nippon BD (BD Supersomes); host or cells: recombinant insect cells (microsomes)
T3 sequence (P05183 1-504): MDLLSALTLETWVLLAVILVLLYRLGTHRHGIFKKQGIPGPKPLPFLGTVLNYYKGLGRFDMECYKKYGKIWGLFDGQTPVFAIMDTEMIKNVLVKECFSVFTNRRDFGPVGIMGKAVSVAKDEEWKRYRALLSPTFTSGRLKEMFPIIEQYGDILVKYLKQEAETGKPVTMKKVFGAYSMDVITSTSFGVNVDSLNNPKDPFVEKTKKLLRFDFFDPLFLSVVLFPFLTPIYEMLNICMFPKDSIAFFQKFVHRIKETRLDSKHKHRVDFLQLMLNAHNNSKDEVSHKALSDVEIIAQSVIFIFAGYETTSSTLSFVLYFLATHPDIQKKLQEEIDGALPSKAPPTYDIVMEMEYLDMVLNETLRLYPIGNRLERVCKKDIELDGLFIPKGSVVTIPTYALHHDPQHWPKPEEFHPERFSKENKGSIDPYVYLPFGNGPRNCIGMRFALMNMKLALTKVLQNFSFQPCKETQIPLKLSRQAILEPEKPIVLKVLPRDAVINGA
The data set is described as above. In kind it is in vitro ADME. The conditions noted are these: rat CYP3A2 Supersomes, CYP 2 pmol; 3 μM compound (2); 1 mM NADPH; pH 7.4; 37° C., 20 minutes; mean ± SD. The method, then: as §1

Data set [6] addresses T4, human CYP3A4 (Homo sapiens, UniProt P08684).
T4 construct: purchased Nippon BD (BD Supersomes); host or cells: recombinant insect cells (microsomes)
The data set is described as above. In kind it is in vitro ADME. The conditions noted are these: human CYP3A4 Supersomes, CYP 2 pmol; 3 μM compound (2); 1 mM NADPH; pH 7.4; 37° C., 20 minutes; mean ± SD. The method, then: as §1

Data set [7] addresses T5, rat CYP3A1 (Rattus norvegicus, UniProt P04800).
T5 construct: purchased Nippon BD (BD Supersomes); host or cells: recombinant insect cells (microsomes)
T5 sequence (P04800 1-504): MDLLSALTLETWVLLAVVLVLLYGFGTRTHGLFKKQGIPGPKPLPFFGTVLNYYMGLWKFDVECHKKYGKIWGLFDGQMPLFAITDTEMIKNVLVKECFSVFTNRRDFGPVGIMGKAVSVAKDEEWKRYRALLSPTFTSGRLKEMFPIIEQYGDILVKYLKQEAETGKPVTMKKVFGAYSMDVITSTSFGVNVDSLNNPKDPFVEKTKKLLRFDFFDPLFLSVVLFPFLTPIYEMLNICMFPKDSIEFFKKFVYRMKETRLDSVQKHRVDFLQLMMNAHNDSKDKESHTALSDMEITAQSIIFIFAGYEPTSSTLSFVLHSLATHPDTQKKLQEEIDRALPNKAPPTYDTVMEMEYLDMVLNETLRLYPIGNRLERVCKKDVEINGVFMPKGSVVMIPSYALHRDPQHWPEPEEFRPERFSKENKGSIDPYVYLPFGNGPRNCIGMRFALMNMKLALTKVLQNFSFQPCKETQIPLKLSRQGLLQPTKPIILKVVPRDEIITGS
The data set is described as above. Format: in vitro ADME. The conditions noted are these: rat CYP3A1 Supersomes, CYP 2 pmol; 3 μM compound (2); 1 mM NADPH; pH 7.4; 37° C., 20 minutes; mean ± SD. As for the experimental part: as §1

T2 sequence (P05181 whole entry): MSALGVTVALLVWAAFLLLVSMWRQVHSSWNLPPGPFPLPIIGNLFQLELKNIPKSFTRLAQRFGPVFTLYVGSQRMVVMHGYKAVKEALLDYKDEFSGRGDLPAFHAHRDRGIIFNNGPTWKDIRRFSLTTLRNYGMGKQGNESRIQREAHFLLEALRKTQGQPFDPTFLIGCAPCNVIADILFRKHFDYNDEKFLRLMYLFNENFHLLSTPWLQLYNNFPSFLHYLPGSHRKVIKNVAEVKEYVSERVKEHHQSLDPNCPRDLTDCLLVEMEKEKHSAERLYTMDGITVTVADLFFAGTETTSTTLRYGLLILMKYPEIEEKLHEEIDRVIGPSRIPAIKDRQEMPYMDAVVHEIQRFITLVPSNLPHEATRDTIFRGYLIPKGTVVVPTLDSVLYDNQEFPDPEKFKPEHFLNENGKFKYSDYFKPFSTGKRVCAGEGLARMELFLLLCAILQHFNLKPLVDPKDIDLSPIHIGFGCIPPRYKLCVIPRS
T4 sequence (P08684 whole entry): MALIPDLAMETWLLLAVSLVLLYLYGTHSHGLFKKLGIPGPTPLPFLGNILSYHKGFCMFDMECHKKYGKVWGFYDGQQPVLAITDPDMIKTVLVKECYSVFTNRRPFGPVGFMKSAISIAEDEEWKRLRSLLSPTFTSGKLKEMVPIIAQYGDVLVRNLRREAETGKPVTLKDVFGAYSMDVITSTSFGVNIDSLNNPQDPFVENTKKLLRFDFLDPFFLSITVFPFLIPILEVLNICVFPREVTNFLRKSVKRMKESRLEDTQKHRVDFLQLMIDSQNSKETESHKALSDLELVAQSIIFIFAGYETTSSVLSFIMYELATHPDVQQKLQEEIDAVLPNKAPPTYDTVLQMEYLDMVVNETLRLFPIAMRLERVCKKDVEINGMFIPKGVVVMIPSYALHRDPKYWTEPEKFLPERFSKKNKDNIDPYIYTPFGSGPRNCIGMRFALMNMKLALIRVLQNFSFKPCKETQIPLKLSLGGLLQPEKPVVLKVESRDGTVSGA

In the case of `COc1ccc(-c2c3ccc(=O)cc-3oc3cc(O)ccc23)c(C)c1` [Compound (1), 6-hydroxy-9-(4-methoxy-2-methylphenyl)-3H-xanthen-3-one], the “Quantum Efficiency” value in data set [1] was found to be 85.3%.
For the molecule `COc1ccc(-c2c3ccc(=O)cc-3oc3cc(OCc4cc(C(F)(F)F)ccc4C(F)(F)F)ccc23)c(C)c1` [Compound (2), 9-(4-methoxy-2-methylphenyl)-6-bis(2,5-trifluoromethyl)benzyloxy-3H-xanthen-3-one], the “CYP molecular species selectivity as substrate” value in data set [2] is “substrate specific to human and rat CYP3A”. Further, the “Quantum Efficiency” value in data set [1] amounted to 20.6%. In addition, the “amount of the compound (1) produced by reacting the compound (2) with CYP” value in data set [3] is given as 0.0151 ± 0.0081 (3) pmol/min/mg protein; in data set [4], 0.0038 ± 0.0052 (3) pmol/min/mg protein; in data set [5], 0.0912 ± 0.0105 (3) pmol/min/mg protein; in data set [6], 2.4913 ± 0.0497 (3) pmol/min/mg protein; in data set [7], 0.2190 ± 0.0095 (3) pmol/min/mg protein.

Values taken from US20180305329A1, “XANTHINE COMPOUND AND USE THEREOF” (SUMITOMO CHEMICAL COMPANY, LIMITED, priority 2015, published 2018).
